Data on 26 compounds can be found in patent publication US7615643B2 (SmithKline Beecham Corporation, priority 2006, dated 2009).

Each structure is given as a SMILES string. Counter-ions that a name gives are not always drawn.

T1 sequence (P53350 21-346): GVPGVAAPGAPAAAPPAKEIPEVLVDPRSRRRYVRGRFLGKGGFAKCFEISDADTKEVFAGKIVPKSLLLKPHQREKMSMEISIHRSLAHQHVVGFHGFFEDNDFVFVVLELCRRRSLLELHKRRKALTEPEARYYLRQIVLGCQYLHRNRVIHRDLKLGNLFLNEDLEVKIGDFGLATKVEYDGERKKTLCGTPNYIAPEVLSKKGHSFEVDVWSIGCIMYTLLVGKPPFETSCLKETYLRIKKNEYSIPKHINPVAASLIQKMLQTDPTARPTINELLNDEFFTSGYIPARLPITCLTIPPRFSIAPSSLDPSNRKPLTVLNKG

This experiment has as its target T1, PLK1 (Homo sapiens, UniProt P53350).
T1 construct: PLK kinase domain (amino acids 21-346 preceded by MKKGHHHHHHD); made in house; host or cells: baculovirus infected T. ni cells
Briefly: Assay for inhibition of PLK1 (SPA kinase assay). The experiment is classed as biochemical. Particulars: 1 μM ATP, 2 nM PLK1 kinase domain, read-out: PLK1 pIC50 (converted). The gist of the method: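 His-tagged PLK1 kinase domain (aa 21-346, baculovirus/T. ni) at 2 nM with 1 μM ATP plus 33P-γ-ATP and 1 μM biotinylated peptide in 25 mM HEPES pH 7.2, 15 mM MgCl2, 1 mM DTT, 0.15 mg/mL BSA; 1-1.5 h at 22° C. Streptavidin SPA capture read; percent inhibition versus DMSO, EDTA background.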
With `CC(Oc1cc(-n2cnc3cc(-c4cnn(C)c4)ccc32)sc1C(N)=O)c1cccc(OC2CCNCC2)c1F` (racemic) [Example 75, (+/−)-3-({1-[2-Fluoro-3-(4-piperidinyloxy)phenyl]ethyl}oxy)-5-[5-(1-methyl-1H-pyrazol-4-yl)-1H-benzimidazol-1-yl]-2-thiophenecarboxamide], the IC50 is less than 100 nM.
For `COc1cc2ncn(-c3cc(O[C@H](C)c4cccc(NCC5CCN(C)CC5)c4Cl)c(C(N)=O)s3)c2cc1OC` [Example 2], the IC50 is less than 100 nM.
The same measure for `C[C@@H](Oc1cc(-n2cnc3ccccc32)sc1C(N)=O)c1cccc(OC2CCN(C)CC2)c1Cl` [Example 13, 5-(1H-benzimidazol-1-yl)-3-[((1R)-1-{2-chloro-3-[(1-methyl-4-piperidinyl)gxy]phenyl}ethyl)oxy]-2-thiophenecarboxamide]: less than 100 nM; for `C[C@@H](Oc1cc(-n2cnc3ccc(C#N)cc32)sc1C(N)=O)c1cccc(OC2CCN(C)CC2)c1Cl` [Example 4, 3-((1R)-1-{2-chloro-3-[(1-methylpiperidin-4-yl)oxy]phenyl}-ethoxy)-5-(6-cyano-1H-benzimidazol-1-yl)thiophene-2-carboxamide]: less than 100 nM.
For `C[C@@H](Oc1cc(-n2cnc3cc(Cl)c(F)cc32)sc1C(N)=O)c1cccc(OC2CCN(C)CC2)c1Cl` [Example 68, 5-(5-Chloro-6-fluoro-1H-benzimidazol-1-yl)-3-[((1R)-1-{2-chloro-3-[(1-methyl-4-piperidinyl)oxy]phenyl}ethyl)oxy]-2-thiophenecarboxamide], the IC50 is less than 100 nM.
As for `COc1cc2ncn(-c3cc(O[C@H](C)c4cccc(OCC5CCN(C(=O)OC(C)(C)C)CC5)c4Cl)c(C(N)=O)s3)c2cc1OC` [Example 39, 1,1-Dimethylethyl 4-[({3-[(1R)-1-({2-(aminocarbonyl)-5-[5,6-bis(methyloxy)-1H-benzimidazol-1-yl]-3-thienyl}oxy)ethyl]-2-chlorophenyl}oxy)methyl]-1-piperidinecarboxylate], the figure is less than 100 nM; as for `CCN1CCC(Oc2cccc([C@@H](C)Oc3cc(-n4cnc5cc(Cl)ccc54)sc3C(N)=O)c2Cl)CC1` [Example 19, 5-(5-Chloro-1H-benzimidazol-1-yl)-3-[((1R)-1-{2-chloro-3-[(1-ethyl-4-piperidinyl)oxy]phenyl}ethyl)oxy]-2-thiophenecarboxamide], less than 100 nM.
The same measure for `C[C@@H](Oc1cc(-n2cnc3ccc(OC(F)(F)F)cc32)sc1C(N)=O)c1cccc(OC2CCNCC2)c1Cl` [Example 63, 3-({(1R)-1-[2-chloro-3-(4-piperidinyloxy)phenyl]ethyl}oxy)-5-{6-[(trifluoromethyl)oxy]-1H-benzimidazol-1-yl}-2-thiophenecarboxamide]: less than 100 nM; for `C[C@@H](Oc1cc(-n2cnc3ccc(C#N)cc32)sc1C(N)=O)c1cccc(OC2CCNCC2)c1Cl` [Example 5, 3-{(1R)-1-[2-chloro-3(piperidin-4-yloxy)phenyl]ethoxy}-5-(6-cyano-1H-benzimidazol-1-yl)thiophene-2-carboxamide]: less than 100 nM; for `C[C@@H](Oc1cc(-n2cnc3cc(-c4cnn(C)c4)ccc32)sc1C(N)=O)c1cccc(OC2CCN(CCS(C)(=O)=O)CC2)c1Cl` [Example 31, 3-({(1R)-1-[2-Chloro-3-({1-[2-(methylsulfonyl)ethyl]-4-piperldinyl}oxy)phenyl]ethyl}oxy)-5-[5-(1-methyl-1H-pyrazol-4-yl)-1H-benzimidazol-1-yl]-2-thiophenecarboxamide]: less than 100 nM.
With `C[C@@H](Oc1cc(-n2cnc3ccc(CS(C)(=O)=O)cc32)sc1C(N)=O)c1cccc(OC2CCN(C)CC2)c1Cl` [Example 55, 3-[((1R)-1-{2-chloro-3-[(1-methyl-4-piperidinyl)oxy]phenyl}ethyl)oxy]-5,6-{6-[(methylsulfonyl)methyl]-1H-benzimidazol-1-yl}-2-thiophenecarboxamide], the IC50 is less than 100 nM.
The same measure for `C[C@@H](Oc1cc(-n2cnc3cc(-c4cnn(C)c4)ccc32)sc1C(N)=O)c1cccc(OCC2CCNCC2)c1Cl` [Example 44, 3-[((1R)-1-{2-Chloro-3-[(4-piperidinylmethyl)oxy]phenyl}ethyl)oxy]-5-[5-(1-methyl-1H-pyrazol-4-yl)-1H-benzimidazol-1-yl]-2-thiophenecarboxamide trifluoroacetate]: less than 100 nM.
The same measure for `C[C@@H](Oc1cc(-n2cnc3cc(-c4cnn(C)c4)ccc32)sc1C(N)=O)c1ccc(F)c(OC2CCN(CCF)CC2)c1Cl` [Example 35, 3-{[(1R)-1-(2-Chloro-4-fluoro-3-{[1-(2-fluoroethyl)-4-piperidinyl]oxy}phenyl)ethyl]oxy}-5-[5-(1-methyl-1H-pyrazol-4-yl)-1H-benzimidazol-1-yl]-2-thiophenecarboxamide]: less than 100 nM.
As for `Cn1cc(-c2ccc3c(c2)ncn3-c2cc(OCc3cccc(OC4CCNCC4)c3)c(C(N)=O)s2)cn1` [Example 83, 5-[5-(1-Methyl-1H-pyrazol-4-yl)-1H-benzimidazol-1-yl]-3-({[3-(4-piperidinyloxy)phenyl]methyl}oxy)-2-thiophenecarboxamide], the figure is less than 100 nM; as for `C[C@@H](Oc1cc(-n2cnc3cc(-c4cnn(C)c4)ccc32)sc1C(N)=O)c1ccc(F)c(OC2CCN(CCS(C)(=O)=O)CC2)c1Cl` [Example 36, 3-({(1R)-1-[2-Chloro-4-fluoro-3-({1-[2-(methylsulfonyl)ethyl]-4-piperidinyl}oxy)phenyl]ethyl}oxy)-5-[5-(1-methyl-1H-pyrazol-4-yl)-1H-benzimidazol-1-yl]-2-thiophenecarboxamide], less than 100 nM.
Consider `C[C@@H](Oc1cc(-n2cnc3ccccc32)sc1C(N)=O)c1cccc(OC2CCNCC2)c1Cl` [Example 14, 5-(1H-Benzimidazol-1-yl)-3-({(1R)-1-[2-chloro-3-(4-piperidinyloxy)phenyl]ethyl}oxy)-2-thiophenecarboxamide], for which the IC50 is less than 100 nM.
As for `Cc1nnc(-c2ccc3c(c2)ncn3-c2cc(O[C@H](C)c3cccc(OC4CCN(C)CC4)c3Cl)c(C(N)=O)s2)o1` [Example 88, 3-[((1R)-1-{2-chloro-3-[(1-methyl-4-piperidinyl)oxy]phenyl}ethyl)oxy]-5-[5-(5-methyl-1,3,4-oxadiazol-2-yl)-1H-benzimidazol-1-yl]-2-thiophenecarboxamide], the figure is less than 100 nM; as for `C[C@@H](Oc1cc(-n2cnc3cc(Cl)c(Cl)cc32)sc1C(N)=O)c1cccc(OC2CCN(C)CC2)c1Cl` [Example 72, 3-[((1R)-1-{2-chloro-3-[(1-methyl-4-piperidinyl)oxy]phenyl}ethyl)oxy]-5-(5,6-dichloro-1H-benzimidazol-1-yl)-2-thiophenecarboxamide], less than 100 nM.
The same measure for `Cc1nnc(-c2ccc3c(c2)ncn3-c2cc(O[C@H](C)c3cccc(OC4CCNCC4)c3Cl)c(C(N)=O)s2)o1` [Example 87, 3-({(1R)-1-[2-Chloro-3-(4-piperidinyloxy)phenyl]ethyl}oxy)-5-[5-(5-methyl-1,3,4-oxadiazol-2-yl)-1H-benzimidazol-1-yl]-2-thiophenecarboxamide]: less than 100 nM; for `CC(Oc1cc(-n2cnc3cc(-c4cnn(C)c4)ccc32)sc1C(N)=O)c1ccnc(OC2CCN(C)CC2)c1` (centres unmarked) [Example 80, 3-[(1-{2-[(1-Methyl-4-piperidinyl)oxy]-4-pyridinyl}ethyl)oxy]-5-[5-(1-methyl-1H-pyrazol-4-yl)-1H-benzimidazol-1-yl]-2-thiophenecarboxamide]: less than 100 nM.
The same measure for `C[C@@H](Oc1cc(-n2cnc3ccc(Cl)cc32)sc1C(N)=O)c1cccc(OC2CCNCC2)c1Cl` [Example 52, 5-(6-Chloro-1H-benzimidazol-1-yl)-3-({(1R)-1-[2-chloro-3-(4-piperidinyloxy)phenyl]ethyl}oxy)-2-thiophenecarboxamide]: less than 100 nM; for `CC(Oc1cc(-n2cnc3cc(-c4cnn(C)c4)ccc32)sc1C(N)=O)c1cccc(OC2CCNCC2)n1` (racemic) [Example 81, (+/−)-5-[5-(1-Methyl-1H-pyrazol-4-yl)-1H-benzimidazol-1-yl]-3-({1-[6-(4-piperidinyloxy)-2-pyridinyl]ethyl}oxy)-2-thiophenecarboxamide]: less than 100 nM; for `C[C@@H](Oc1cc(-n2cnc3cc(Cl)ccc32)sc1C(N)=O)c1ccc(F)c(OC2CCN(C)CC2)c1Cl` [Example 32, 5-(5-Chloro-1H-benzimidazol-1-yl)-3-[((1R)-1-{2-chloro-4-fluoro-3-[(1-methyl-4-piperidinyl)oxy]phenyl}ethyl)oxy]-2-thiophenecarboxamide]: less than 100 nM.
On to `CC(Oc1cc(-n2cnc3cc(-c4cnn(C)c4)ccc32)sc1C(N)=O)c1cccc(OC2CCNCC2)c1` (racemic) [Example 73, (+/−)-5-[5-(1-Methyl-1H-pyrazol-4-yl)-1H-benzimidazol-1-yl]-3-({1-[3-(4-piperidinyloxy)phenyl]ethyl}oxy)-2-thiophenecarboxamide], for which the IC50 is less than 100 nM.
Consider `Cc1ccc(-c2ccc3c(c2)ncn3-c2cc(O[C@H](C)c3cccc(OC4CCN(C)CC4)c3Cl)c(C(N)=O)s2)cn1` [Example 10, 3-[((1R)-1-{2-chloro-3-[(1-methyl-4-piperidinyl)oxy]phenyl}ethyl)oxy]-5-[5-(6-methyl-3-pyridinyl)-1H-benzimidazol-1-yl]-2-thiophenecarboxamide], for which the IC50 is less than 100 nM.
The same measure for `COc1cc2ncn(-c3cc(O[C@H](C)c4cccc(NCC5CCNCC5)c4Cl)c(C(N)=O)s3)c2cc1OC` [Example 1, 5-[5,6-Bis(methyloxy)-1H-benzimidazol-1-yl]-3-[((1R)-1-{2-chloro-3-[(4-piperidinylmethyl)amino]phenyl}ethyl)oxy]-2-thiophenecarboxamide]: less than 100 nM.
